From patent US20260071234A1, “METHODS AND COMPOSITIONS FOR HEMATOPOIETIC STEM CELL ENHANCEMENT” (THE REGENTS OF THE UNIVERSITY OF CALIFORNIA, priority 2022, published 2026)

How the values were obtained:
HLF+ HSC = conditions: day 10 cultures; applicant's analysis of published dataset; cited from earlier work
E4EC = assay: FACS based endocytosis assay, internalized fluorescent dextran in E4EC; type: cell-based, human; conditions: MYCT1 KD E4EC, 10 μM chlorpromazine
Experimental: (§1) HSPC or endothelial cells transduced with control, MYCT1 KD, or MYCT1 OE lentiviral vectors were incubated with fluorescent dextran (pHrodo Red Dextran, ThermoFisher Scientific P10361) 40 μg/ml for 30 minutes at 37° C. After incubation, cells were immediately placed on ice, washed with ice-cold DPBS with 5% FBS and resuspended into single cell suspension for FACS analysis. 7AAD was included to discriminate dead cells.

CB HSPCs = assay: FACS based endocytosis assay, internalized fluorescent dextran in CB HSPCs; type: cell-based, human; conditions: MYCT1 KD CB HSPCs cultured 5 days; chlorpromazine 10 μM, MbCD 1 mM
Experimental: as §1

| Compound | MYCT1 expression in HLF+ HSC (HLF+ HSC) | internalized fluorescent dextran after pre-treatment with endocytosis inhibitor (E4EC) | dextran internalization after pre-treatment with endocytosis inhibitor (CB HSPCs) |
| --- | --- | --- | --- |
| CC(C)n1cnc2c(NCCc3ccc(O)cc3)nc(-c3csc4ccccc34)nc21 [SR1] | minimal MYCT1 expression |  |  |
| Cn1nnc(-c2ccc3c(c2)[nH]c2nc(Cc4ccccc4)nc(NC4CCC(N)CC4)c23)n1 (centres unmarked) [UM171] | minimal MYCT1 expression |  |  |
| CN(C)CCCN1c2ccccc2Sc2ccc(Cl)cc21 [chlorpromazine] |  | dampened the increased endocytosis caused by MYCT1 loss | not sufficient to restore hyperactive endocytosis |
| methyl-beta-cyclodextrin |  |  | not sufficient to restore hyperactive endocytosis |
